Assay: xn = mol fraction of the nth substance listed

CC(=O)[O-].CC[n+]1ccn(C)c1 + CN(CCO)CCO
101 kPa
Conditions	electrical conductivity [S/m]	viscosity [mPa·s]
288.15 K, x1 = 0.2002	0.036	150.1
288.15 K, x1 = 0.4995	0.066	174
293.15 K, x1 = 0.4001	0.071	123.1
298.15 K, x1 = 0.4995	0.112	97.7
303.15 K, x1 = 0.2002	0.065	65.1
303.15 K, x1 = 0.5998	0.171	81.8
303.15 K, x1 = 1	0.358	102.4
308.15 K, x1 = 0.8999	0.384	73.4
313.15 K, x1 = 0.4995	0.229	48.5
313.15 K, x1 = 0.7003	0.343	52.3
313.15 K, x1 = 0.7998	0.401	54.1
318.15 K, x1 = 0.1002	0.051	29.4
318.15 K, x1 = 0.7003	0.426	42.4
318.15 K, x1 = 0.8999	0.598	46.3
318.15 K, x1 = 1	0.724	47.7
323.15 K, x1 = 0.1002	0.063	23.5
323.15 K, x1 = 1	0.883	39
328.15 K, x1 = 0.1002	0.075	18.9
328.15 K, x1 = 0.4995	0.414	26.5
328.15 K, x1 = 0.5998	0.519	27.6
333.15 K, x1 = 0.8999	1.06	25.7
333.15 K, x1 = 1	1.25	26.7
343.15 K, x1 = 0.4001	0.52	14.88
348.15 K, x1 = 0.4995	0.795	13.87
353.15 K, x1 = 0.2002	0.331	8.91
353.15 K, x1 = 0.5998	1.2	12.74
353.15 K, x1 = 0.7998	1.68	–

CCCC[n+]1ccn(C)c1.N#C[N-]C#N + O + NCCO
100 kPa, x1 = 0.2918, x2 = 0.2557
Conditions	viscosity [mPa·s]
303 K	11.73
308 K	9.99
313 K	8.59
318 K	7.46
323 K	6.53

O=S(=O)([N-]S(=O)(=O)C(F)(F)F)C(F)(F)F.O=S(=O)([N-]S(=O)(=O)C(F)(F)F)C(F)(F)F.[Zn+2] + CCCC[N+]1(C)CCCC1.O=S(=O)([N-]S(=O)(=O)C(F)(F)F)C(F)(F)F
100 kPa, x1 = 0.24
Conditions	electrical conductivity [S/m]
356.5 K	0.306
409.4 K	1.24

C[C@H](N)C(=O)[O-].C[N+](C)(C)CCO + CCO
100 kPa
Conditions	viscosity [mPa·s]
287.88 K, x1 = 1	4500
287.97 K, x1 = 0.6071	550
288 K, x1 = 0.2012	17.5
288.02 K, x1 = 0.1013	5.6
288.04 K, x1 = 0.8027	1750
288.05 K, x1 = 0.3782	89
288.05 K, x1 = 0.5527	359
288.05 K, x1 = 0.7056	1079
288.09 K, x1 = 0.2903	42
288.1 K, x1 = 1	5100
288.12 K, x1 = 0.894	2875
289.23 K, x1 = 0.6071	520
289.25 K, x1 = 0.3782	88
289.26 K, x1 = 0.2012	17
289.26 K, x1 = 0.8027	1625
289.28 K, x1 = 0.1013	5.3
289.28 K, x1 = 0.5527	339
289.29 K, x1 = 0.7056	990
289.31 K, x1 = 0.2903	40.6
289.34 K, x1 = 0.894	2592
289.96 K, x1 = 1	3700
290.21 K, x1 = 1	4300
290.48 K, x1 = 0.6071	470
290.5 K, x1 = 0.3782	85
290.51 K, x1 = 0.2012	16.4
290.51 K, x1 = 0.8027	1464
290.52 K, x1 = 0.1013	5.1
290.52 K, x1 = 0.5527	315
290.52 K, x1 = 0.7056	900
290.53 K, x1 = 0.2903	39.2
290.55 K, x1 = 0.894	2319
291.71 K, x1 = 0.6071	430
291.72 K, x1 = 0.2012	15.7
291.72 K, x1 = 0.3782	80
291.73 K, x1 = 0.1013	4.9
291.73 K, x1 = 0.2903	37.6
291.73 K, x1 = 0.5527	291
291.73 K, x1 = 0.7056	820
291.73 K, x1 = 0.8027	1311
291.74 K, x1 = 0.894	2072
292.02 K, x1 = 1	3052
292.32 K, x1 = 1	3520
292.91 K, x1 = 0.1013	4.7
292.91 K, x1 = 0.3782	76
292.91 K, x1 = 0.6071	394
292.92 K, x1 = 0.2012	15
292.92 K, x1 = 0.2903	36
292.92 K, x1 = 0.5527	268
292.92 K, x1 = 0.7056	740
292.92 K, x1 = 0.8027	1180
292.92 K, x1 = 0.894	1858
294.08 K, x1 = 1	2544
294.09 K, x1 = 0.1013	4.5
294.09 K, x1 = 0.2012	14.3
294.09 K, x1 = 0.2903	34.4
294.09 K, x1 = 0.6071	360
294.1 K, x1 = 0.3782	73
294.1 K, x1 = 0.5527	248
294.1 K, x1 = 0.7056	670
294.1 K, x1 = 0.8027	1065
294.1 K, x1 = 0.894	1669
294.41 K, x1 = 1	2896
295.27 K, x1 = 0.1013	4.4
295.27 K, x1 = 0.2012	13.8
295.27 K, x1 = 0.2903	33.1
295.27 K, x1 = 0.3782	70
295.27 K, x1 = 0.5527	231
295.27 K, x1 = 0.6071	333
295.27 K, x1 = 0.7056	620
295.27 K, x1 = 0.8027	970
295.27 K, x1 = 0.894	1510
296.14 K, x1 = 1	2140
296.45 K, x1 = 0.1013	4.2
296.45 K, x1 = 0.2012	13.2
296.45 K, x1 = 0.2903	31.7
296.45 K, x1 = 0.3782	66
296.45 K, x1 = 0.5527	216
296.45 K, x1 = 0.6071	308
296.45 K, x1 = 0.7056	560
296.45 K, x1 = 0.8027	880
296.45 K, x1 = 0.894	1365
296.48 K, x1 = 1	2402
297.63 K, x1 = 0.1013	3.97
297.63 K, x1 = 0.2012	12.6
297.63 K, x1 = 0.2903	30.2
297.63 K, x1 = 0.3782	63
297.63 K, x1 = 0.5527	200
297.63 K, x1 = 0.6071	283
297.63 K, x1 = 0.7056	520
297.63 K, x1 = 0.8027	800
297.63 K, x1 = 0.894	1234
298.2 K, x1 = 1	1806
298.54 K, x1 = 1	2000
298.81 K, x1 = 0.1013	3.81
298.81 K, x1 = 0.2012	12.1
298.81 K, x1 = 0.2903	29.1
298.81 K, x1 = 0.3782	61
298.81 K, x1 = 0.5527	188
298.81 K, x1 = 0.6071	263
298.81 K, x1 = 0.7056	480

CC[N+](CC)(CC)CC.[Cl-] + Oc1ccccc1
viscosity [mPa·s], 101 kPa
Conditions	303.15 K	323.15 K
x1 = 0.2	34.1	14.34
x1 = 0.25	38.6	–

CCC[N+](C)(C)C.O=S(=O)([N-]S(=O)(=O)C(F)(F)F)C(F)(F)F + CCC[N+]1(C)CCCC1.O=S(=O)([N-]S(=O)(=O)C(F)(F)F)C(F)(F)F
101.3 kPa
Conditions	viscosity [mPa·s]
283.15 K, x1 = 0.4	135
283.15 K, x1 = 0.6	148
283.15 K, x1 = 1	179
288.15 K, x1 = 0.6	113
288.15 K, x1 = 1	133
293.15 K, x1 = 0.4	81
303.15 K, x1 = 0.8	59
308.15 K, x1 = 0.2	42.2
308.15 K, x1 = 0.6	46.1
313.15 K, x1 = 0.6	38.2
318.15 K, x1 = 0.8	33.4
323.15 K, x1 = 0.8	28.3
323.15 K, x1 = 1	29.5
328.15 K, x1 = 0.2	22
328.15 K, x1 = 0.4	22.2
328.15 K, x1 = 0.8	24.2
333.15 K, x1 = 0.2	19.1
333.15 K, x1 = 0.4	19.3
333.15 K, x1 = 0.6	20.3
333.15 K, x1 = 1	21.7
343.15 K, x1 = 0.4	14.9
348.15 K, x1 = 0.4	13.3
353.15 K, x1 = 0.2	11.8
353.15 K, x1 = 0.6	12.3

CCCC[n+]1ccn(C)c1.N#C[S-] + [Cl-].[Li+] + CN1CCCC1=O
298.15 K, 101 kPa
Conditions	viscosity [mPa·s]
x1 = 0.000959, x2 = 0.03815	2.65
x1 = 0.001063, x2 = 0.07221	3.61
x1 = 0.001192, x2 = 0.104	4.991
x1 = 0.002304, x2 = 0.07212	3.657
x1 = 0.002399, x2 = 0.03809	2.683
x1 = 0.00252, x2 = 0.1039	5.021
x1 = 0.003854, x2 = 0.03804	2.715
x1 = 0.003994, x2 = 0.072	3.706
x1 = 0.00415, x2 = 0.1037	5.048
x1 = 0.005535, x2 = 0.03797	2.75
x1 = 0.005737, x2 = 0.1036	5.082
x1 = 0.005932, x2 = 0.07186	3.734
x1 = 0.006974, x2 = 0.07178	3.765
x1 = 0.007127, x2 = 0.1034	5.104
x1 = 0.007392, x2 = 0.0379	2.777
x1 = 0.008668, x2 = 0.1032	5.141
x1 = 0.008714, x2 = 0.07165	3.796
x1 = 0.009327, x2 = 0.03783	2.805
x1 = 0.009861, x2 = 0.07157	3.834
x1 = 0.009986, x2 = 0.1031	5.166
x1 = 0.01105, x2 = 0.03776	2.846
x1 = 0.01164, x2 = 0.1029	5.198
x1 = 0.01191, x2 = 0.07142	3.877
x1 = 0.01372, x2 = 0.03766	2.869
